The values below are quoted from earlier work in paper PMC11089247 (Frontiers in Pharmacology, 2024).

The structures appear in SMILES notation. Structures can show the parent of a compound that is named as a salt.

The test system of series [1] is CYP2C19. Particulars: substrate fluoxetine, ref Fang et al., 2017.
The subject of series [2] is CYP2C9. More on the design: method as in Ji et al., 2015. Particulars: substrate fluoxetine, ref Ji et al., 2015.

With `CNCCC(Oc1ccc(C(F)(F)F)cc1)c1ccccc1` (centres unmarked) [fluoxetine, Fluoxetine hydrochloride], the Michaelis-Menten constant (Km) (usually the concentration of substrate that gives half-maximal velocity) is 97.6 µM in series [1] and 31.7 µM in series [2].
